From patent publication US20090176726A1, “METHODS FOR TREATING MITF-RELATED DISORDERS” (priority 2005, published 2009)
Where two headings read alike, the source gives them in different places.

Key:
[1] = test system: MITF mRNA; type: cell-based, human
[2] = test system: FoxD1; type: cell-based, human
[3] = test system: HIF-1α; assay: HIF-1α protein level in human melanoma cells (UACC62); type: cell-based
[4] = test system: MITF; assay: MITF protein level in human melanoma cells (UACC62); type: cell-based
[5] = test system: MITF; type: cell-based, human
[6] = test system: HIF-1α; type: cell-based, human
[7] = test system: MITF; assay: MITF expression in UACC62 cells transfected with constitutive MITF vector or empty vector; type: cell-based, human; details: increasing levels of DMOG
Source text: (§1) Human melanoma cells (UACC62) were transfected with a vector that constitutively expresses MITF off a promoter different from its natural promoter. As a control, other cells were transfected with empty vector. Both cell types were exposed to increasing levels of DMOG, which mimics certain aspects of hypoxia in upregulating HIF.

[8] = test system: Human melanoma cells (UACC62); assay: Cell death of transfected UACC62 cells exposed to DMOG; type: cell-based
Source text: as §1

[9] = UACC62 cells, 200 μM DFO, 0, 2, 6, 8 and 24 hrs, FIG. 4B
[10] = UACC62 cells transformed with empty vector

[Cl-].[Cl-].[Co+2] [CoCl2]
MITF mRNA levels [1]: decreased
FoxD1 expression (microarray) [2]: upregulated
HIF-1α levels [3]: increased
level of HIF-1α protein [3]: increased
MITF protein levels [4]: decreased
downregulation of MITF by CoCl2 [4]: substantially blocked
level of MITF protein [4]: decreased
level of MITF protein [5]: decreased as CoCl2 was increased
level of HIF-1α [6]: increased as CoCl2 was increased

CC(=O)N(O)CCCCCNC(=O)CCC(=O)N(O)CCCCCNC(=O)CCC(=O)N(O)CCCCCN [DFO, desferrioxamine]
HIF-1α protein levels [3, 9]: increased steadily
MITF protein levels [4, 9]: decreased steadily

COC(=O)CNC(=O)C(=O)OC [DMOG, dimethyl-oxalylglycine]
MITF expression [7, 10]: significant decrease
MITF expression ([7]; UACC62 cells transformed with vector that constitutively expresses MITF): did not exhibit a detectable decrease
HIF-1α levels at 24 hours ([3]; UACC62 cells, 1 mM DMOG, 24 hours compared with 8 hours, FIG. 4A): somewhat lower than at 8 hours
HIF-1α protein level, 2 to 8 hours ([3]; UACC62 cells, 1 mM DMOG, FIG. 4A): increased steadily
cell death ([8]; UACC62 cells that constitutively express MITF, at DMOG levels lethal to empty vector cells): protected from cell death
cell death [8, 10]: lethal
level of MITF protein ([4]; UACC62 cells, 1 mM DMOG, 0, 2, 6, 8 and 24 hrs, FIG. 4A): decreased
